Toxic doses and inconclusive results are not listed. The calls were made as follows: active = survival T/C of 150% or more; inactive = T/C below 125% in these data.
System: CD2F1 mice, L1210 leukemia ip, survival T/C
Experiment: NCI In Vivo Anticancer Drug Screen. Data for tumor model L1210 Leukemia (intraperitoneal) in CD2F1 (CDF1) mice
Conditions: endpoint: mean survival time, schedule: Q01DX001 (ip), vehicle: saline with Tween-80, higher = longer survival
Outline: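 In this screen, transplantable tumors were grown in mice given either the compound or its vehicle. Results were expressed as the treated measurement relative to the control measurement.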

Measured: T/C

COC(=O)Cc1cc(O)c(C(=O)OC)c(O)c1C(=O)OC
inactive: dose: 100.0 mg/kg/injection 103 % of control | dose: 200.0 mg/kg/injection 98 % of control | dose: 400.0 mg/kg/injection 98 % of control

Source: PubChem BioAssay AID256 (DTP/NCI, 2004)
